Results published in US6362166B1, “Antipicornaviral compounds and methods for their use and preparation” (Agouron Pharmaceuticals, Inc., priority 1996, dated 2002).
Like-named read-outs stand apart in the source and are kept apart here.

How the values were obtained:
[1] = Cytotoxicity in mock-infected HI-HeLa cells (antirhinoviral assay, XTT); type: cell-based; settings: human; mock-infected HI-HeLa cells; two days; XTT; read-out: CC50
[2] = system: HRV-14; experiment: Antirhinoviral HI-HeLa Cell Culture Assay (Cell Protection Assay, XTT dye reduction); type: cell-based, human rhinovirus (HRV) serotype-14
Procedure, shortened: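 HI-HeLa cells infected with HRV-14 at m.o.i. 0.13 or mock-infected, then incubated with compounds for two days. Cell protection read by XTT/PMS formazan at 450/650 nm; therapeutic index = CC50/EC50.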

[3] = molecular target: T1, Recombinant Rhinovirus 3C protease (RVP) serotype 16 (Human rhinovirus 16, UniProt Q82122); experiment: Inhibition of Rhinovirus Protease (fluorescence resonance energy transfer assay), serotype 16; type: biochemical, human rhinovirus (HRV); settings: RVP serotype 16, progress curves in enzyme start experiments; for kinact/KI: pH 7.6, read-out: kobs/I
T1 construct: Recombinant Rhinovirus 3C proteases from serotypes 14, 16, 2 or 89; made in house
T1 sequence (Q82122 1511-1693): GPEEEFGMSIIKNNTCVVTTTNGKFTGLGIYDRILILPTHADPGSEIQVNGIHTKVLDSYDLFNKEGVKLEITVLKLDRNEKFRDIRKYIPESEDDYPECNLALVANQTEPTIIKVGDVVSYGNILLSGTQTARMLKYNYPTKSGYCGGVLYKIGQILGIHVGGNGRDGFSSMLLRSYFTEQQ
Description: (§1) Stock solution (50 mM, in DMSO) of various compounds were prepared; dilutions were in the same solvent. Recombinant Rhinovirus 3C proteases from serotypes 14, 16, 2 or 89 were prepared by the following standard chromatographic procedures: (1) ion exchange using Q Sepharose Fast Flow from Pharmacia; (2) affinity chromatography using Affi-Gel Blue from Biorad; and (3) sizing using Sephadex G-100 from Pharmacia. Assays contained 2% DMSO, 50 mM tris pH 7.6, 1 mM EDTA, a compound at the indicated concentrations, approximately 1 μM substrate, and 50-100 nM protease. […] The kobs/I values were obtained from reactions initiated by addition of enzyme rather than substrate. RVP activity is measured in the fluorescence resonance energy transfer assay. The substrate was (N-terminal) DABCYL-([…]Gyl)-EDANS. In the uncleaved peptide, the EDANS fluorescence was quenched by the proximal DABCYL moeity. When the peptide was cleaved, the quenching was relieved, and activity was measured as an increase in fluorescence signal.
(§2) In the above table, all data is RVP serotype-14 unless otherwise noted in parentheses. All strains of human rhinovirus (HRV) were purchased from American Type Culture Collection (ATCC), except for serotype 14, which was produced from the infectious cDNA clone constructed and supplied to us by Dr. Roland Rueckert at the Institute for Molecular Virology, University of Wisconsin, Madison, Wisc. […] The data in the column designated kobs/I was measured from progress curves in enzyme start experiments.

[4] = molecular target: T2, Recombinant Rhinovirus 3C protease (RVP) serotype-14 (Human rhinovirus 14, UniProt P03303); experiment: Inhibition of Rhinovirus Protease (fluorescence resonance energy transfer assay), serotype 14; type: biochemical, human rhinovirus (HRV); settings: for kinact/KI: pH 7.6, read-out: kobs/I; for kobs/I: progress curves in enzyme start experiments
T2 construct: Recombinant Rhinovirus 3C proteases from serotypes 14, 16, 2 or 89; made in house
T2 sequence (P03303 1538-1719): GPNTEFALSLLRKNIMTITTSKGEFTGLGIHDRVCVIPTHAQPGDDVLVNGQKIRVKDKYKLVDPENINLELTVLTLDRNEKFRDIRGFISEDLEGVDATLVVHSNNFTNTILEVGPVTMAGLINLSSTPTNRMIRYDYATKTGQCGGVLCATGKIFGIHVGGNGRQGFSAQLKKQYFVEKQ

[5] = molecular target: T3, Recombinant Rhinovirus 3C protease (RVP) serotype 2 (Human rhinovirus 2, UniProt P04936); experiment: Inhibition of Rhinovirus Protease (fluorescence resonance energy transfer assay), serotype 2; type: biochemical, human rhinovirus (HRV); settings: for kinact/KI: pH 7.6, progress curves in enzyme start experiments, read-out: kobs/I; for kobs/I: progress curves in enzyme start experiments
T3 construct: Recombinant Rhinovirus 3C proteases from serotypes 14, 16, 2 or 89; made in house
T3 sequence (P04936 1508-1690): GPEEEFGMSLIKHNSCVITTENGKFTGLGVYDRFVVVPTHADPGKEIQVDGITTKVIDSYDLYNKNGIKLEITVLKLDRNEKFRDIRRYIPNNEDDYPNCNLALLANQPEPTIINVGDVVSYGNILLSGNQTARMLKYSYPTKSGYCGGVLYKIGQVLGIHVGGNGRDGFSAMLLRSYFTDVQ
Description: as §1, §2

[6] = system: HI-HeLa cells; experiment: Cytotoxicity in mock-infected HI-HeLa cells (antirhinoviral assay, XTT); type: cell-based
[7] = system: Human Rhinovirus-serotype 10 (HRV-10); experiment: Normal Human Bronchial Epithelial Cell Assay (MTT); type: cell-based; settings: normal human bronchial cells, HRV-10 at m.o.i. 10, 3-4 days at 34° C., read-out: ED50 (the source's name)
Description: Normal human bronchial cells were obtained from cadavers and cultured. The cells were plated at 2×10^4 per well in a […] plate. They were allowed to adhere and grow for 24 hours in 200 μL of serum-free bronchial/tracheal epithelial cell growth medium at 37° C. with 5% CO2. Human Rhinovirus-serotype 10 (HRV-10) was purchased from American Type Culture Collection (ATCC). To start the assay, the supernatant was removed, and HRV-10 at an m.o.i. of 10 (virus particles/cell) was added to each well along with the appropriate amount of compound of formula I or II. The plate was then incubated at 34° C. After 3 hours the supernatant was removed, and 200 μL of media was added along with the same concentration of compound as used in the beginning of the assay. The plates were incubated for 3-4 days at 34° C. To determine the amount of cell growth, an MTT assay (0.5 mgs/mL), as described in Mosmann, T. J. J. Immunol. Methods 1983, 65, 55-63, which is incorporated herein by reference, was performed on the cells, and the plate was read at an optical density of 540 nm. The compounds were tested against control compound Pirodavir, obtained from Janssen Pharmaceuticals. The EC50 was measured as described above for the HI-HeLa Cell Culture Assay.

[8] = Rhinovirus B, HRV14, 48 h, HI-HeLa cells infected with HRV-14, m.o.i. 0.13, two days, XTT, read-out: EC50
[9] = HI-HeLa cells infected with HRV-14, m.o.i. 0.13, two days, XTT, read-out: EC50

| Compound | CC50 at 2 days [1] [nM] | EC50 [2, 8] [nM] | kinact/KI [3] [M⁻¹ s⁻¹] | Ki [4] [nM] | kinact/KI [4] [M⁻¹ s⁻¹] | kinact/KI [5] [M⁻¹ s⁻¹] | CC50 [6] [nM] | EC50 [2, 9] [nM] | kobs/I ([4]; RVP serotype-14) | kobs/I [3] | kobs/I [5] | further results |
| --- | --- | --- | --- | --- | --- | --- | --- | --- | --- | --- | --- | --- |
| CCOC(=O)/C=C/[C@H](CCC(N)=O)NC(=O)[C@H](Cc1ccccc1)NC(=O)[C@H](CC(C)C)NC(=O)SCC [Compound 120] | > 320000 | 460 | 20000 | 6000 | 91300 | 8900 | – | – | – | – | – | – |
| CCOC(=O)/C=C/[C@H](CCC(N)=O)NC(=O)[C@H](Cc1ccccc1)NC(=O)[C@H](CC(C)C)NC(=O)SCc1ccccc1 [Compound 106] | > 320000 | 270 | 75000 | 2000 | 280000 | 28400 | – | – | – | – | – | – |
| CCOC(=O)/C=C/[C@H](CCC(N)=O)NC(=O)[C@H](Cc1ccccc1)NC(=O)[C@H](CCC(=O)O)NC(=O)OCc1ccccc1 [Compound 154] | > 320000 | 5500 | 13900 | 1100 | 78900 | 5400 | – | – | – | – | – | – |
| CCOC(=O)/C=C/[C@H](CNC(C)=O)NC(=O)[C@H](Cc1ccccc1)NC(=O)[C@H](CC(C)C)NC(=O)OCc1ccccc1 [Compound 4, Ethyl-3-[CBZ-L-Leu-L-Phe-L-(N-Ac-amino)-Ala]-E-Propenoate] | – | – | – | – | – | – | > 320000 | 2200 | 790 M⁻¹ s⁻¹ | – | – | EC50 [7]: 150 nM; INHIB (percent inhibition) ([4]; RVP serotype-14, 0.5 μM compound, 10 minute preincubation with 50 nM RVP): 49(0.5) percent |
| CCOC(=O)/C=C/[C@H](CCC(N)=O)NC(=O)[C@H](Cc1ccccc1)NC(=O)[C@H](Cc1ccccc1)NC(=O)OCc1ccccc1 [Compound 157] | > 320000 | 560 | 30800 | 6000 | 162000 | 9700 | – | – | – | – | – | – |
| CC(C)C[C@H](NC(=O)OCc1ccccc1)C(=O)N[C@@H](Cc1ccccc1)C(=O)N[C@H](/C=C/C(=O)N1CCc2ccccc21)CCC(N)=O [Compound 85] | > 320000 | 16000 | – | 3000 | 6500 | – | – | – | – | – | – | EC50 ([7]; Epithelial cell): 5 nM |
| CCOC(=O)/C=C/[C@H](CC[S+](C)[O-])NC(=O)[C@H](Cc1ccccc1)NC(=O)[C@H](CC(C)C)NC(=O)OCc1ccccc1 (stereo partly drawn) [Compound 12, Ethyl-3-[CBZ-L-Leu-L-Phe-L-Met(sulfoxide)]-E-propenoate] | > 100000 | 1600 | – | 4300 | 2200 | – | – | – | – | – | – | EC50 ([7]; Epithelial cell): 4 nM |
| CCOC(=O)/C=C/[C@H](CCC(N)=O)NC(=O)[C@H](Cc1ccccc1)NC(=O)[C@H](CSc1ccccc1)NC(=O)OCc1ccccc1 [Compound 153] | > 320000 | 120 | 30600 | 1400 | 141000 | 13400 | – | – | – | – | – | – |
| Ethyl-3-[CBZ-L-Leu-L-Phe-L-[N-(2-pyrrolidinone)]-Ala]-E-Propenoate [Compound 5] | – | – | – | – | – | – | 251000 | 1600 | 221 M⁻¹ s⁻¹ | – | – | EC50 [7]: 1 nM; Ki ([4]; RVP serotype-14, 10 minute preincubation, substrate start, read-out: INHIB (Ki)): 7100 nM |
| CCOC(=O)C=CC(CCC(N)=O)NC(=O)C(Cc1ccc(C)cc1)NC(=O)C(CC(C)C)NC(=O)OCc1ccccc1 (centres unmarked) [Compound 155] | > 320000 | – | 5250 | – | 59400 | 1390 | – | – | – | – | – | EC50 ([2]; Rhinovirus B, HRV14, 48 h): 180 nM |
| CCOC(=O)/C=C/[C@H](CCC(N)=O)NC(=O)[C@H](Cc1ccccc1)NC(=O)[C@H](CSCc1ccccc1)NC(=O)OCc1ccccc1 [Compound 165] | – | – | – | – | – | – | > 100000 | 200 | 97,000 M-1 sec-1 | 20,200 M-1 sec-1 | 5,600 M-1 sec-1 | – |
| CC(C)C[C@H](NC(=O)OCc1ccccc1)C(=O)N[C@@H](Cc1ccccc1)C(=O)N[C@H](/C=C/C(=O)N1CCOC1=O)CCC(N)=O [Compound 62] | – | – | – | – | – | – | > 100000 | 1600 | 600,000 M-1 sec-1 | 300,000 M-1 sec-1 | 600,000 M-1 sec-1 | – |
| CCOC(=O)/C=C/[C@H](CCC(N)=O)NC(=O)[C@H](Cc1ccc(OC)cc1)NC(=O)[C@H](CC(C)C)NC(=O)OCc1ccccc1 [Compound 103] | – | – | – | – | – | – | > 320000 | 1700 | 29,200 M-1 sec-1 | 3,354 M-1 sec-1 | 1,106 M-1 sec-1 | – |
| CCC[C@H](NC(=O)[C@H](CC(C)C)NC(=O)OCc1ccccc1)C(=O)N[C@H](/C=C/C(=O)OCC)CCC(N)=O [Compound 137] | – | – | – | – | – | – | > 320000 | 224000 | 2,344 M-1 sec-1 | 1,157 M-1 sec-1 | 643 M⁻¹ s⁻¹ | – |
| CCOC(=O)/C=C/[C@H](CCC(N)=O)NC(=O)[C@H](Cc1ccccc1)NC(=O)[C@H](CCc1ccccc1)NC(=O)SCc1ccccc1 [Compound 162] | – | – | – | – | – | – | > 100000 | 320 | 800,000 M-1 sec-1 | 80,000 M-1 sec-1 | 150,000 M-1 sec-1 | – |
| CCOC(=O)/C=C/[C@H](CCC(N)=O)NC(=O)[C@H](Cc1ccccc1)NC(=O)[C@H](CO)NC(=O)OCc1ccccc1 [Compound 149] | – | – | – | – | – | – | > 320000 | 1780 | 39,940 M-1 sec-1 | 7,700 M-1 sec-1 | 2,840 M-1 sec-1 | – |
| CCOC(=O)/C=C/[C@H](CCC(N)=O)NC(=O)[C@H](Cc1ccccc1)NC(=O)[C@H](CC(=O)O)NC(=O)OCc1ccccc1 [Compound 159] | > 320000 | 2400 | 6500 | 500 | 35000 | 2500 | – | – | – | – | – | – |
| CCOC(=O)C=CC(CCC(N)=O)NC(=O)C(Cc1ccccc1)NC(=O)C(CCc1ccccc1)NC(=O)OCc1ccccc1 (centres unmarked) [Compound 148] | > 320000 | 250 | 14800 | – | 57000 | 8300 | – | – | – | – | – | – |
| CCOC(=O)/C=C/[C@H](CCC(N)=O)NC(=O)[C@H](Cc1ccccc1)NC(=O)[C@H](CSc1ccccc1)NC(=O)SC1CCCC1 [Compound 173, Ethyl-3-[Cyclopentylthiocarbonyl-L-(S-Ph-Cys)-L-Phe-L-Gln]-E-Propenoate] | – | – | – | – | – | – | > 100000 | 80 | 1,000,000 M-1 sec-1 | 185,000 M-1 sec-1 | 113,000 M-1 sec-1 | – |
